In ChEMBL document CHEMBL1143211, “Inhibitors of proteases and amide hydrolases that employ an alpha-ketoheterocycle as a key enabling functionality” (Bioorg Med Chem, 2008):
pEC50, pIC50, pKi: −log10 of the molar value. One block for each molecule: values may come before it.

What was measured:
[1] = Inhibition of HDAC
[2] = Selectivity for rat FAAH over triacylglycerol hydrolase
Cathepsin B = Cathepsin B (Homo sapiens, UniProt P07858); assay: Inhibition of human liver cathepsin B
Cathepsin K = target: T1, Cathepsin K (Homo sapiens, UniProt P43235); assay: Inhibition of human recombinant cathepsin K
T1 sequence (P43235 whole entry): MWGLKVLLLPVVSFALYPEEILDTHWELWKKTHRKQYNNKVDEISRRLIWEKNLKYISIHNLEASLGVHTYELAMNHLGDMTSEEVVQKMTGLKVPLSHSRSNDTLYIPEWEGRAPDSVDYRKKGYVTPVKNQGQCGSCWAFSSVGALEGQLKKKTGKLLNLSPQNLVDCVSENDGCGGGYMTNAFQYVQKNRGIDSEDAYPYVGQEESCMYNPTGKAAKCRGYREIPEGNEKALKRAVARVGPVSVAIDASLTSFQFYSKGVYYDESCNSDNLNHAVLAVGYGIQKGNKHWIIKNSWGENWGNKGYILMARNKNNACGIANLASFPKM

Procathepsin L = Procathepsin L (Homo sapiens, UniProt P07711); assay: Inhibition of human recombinant cathepsin L
Procathepsin L, sequence (P07711 whole entry): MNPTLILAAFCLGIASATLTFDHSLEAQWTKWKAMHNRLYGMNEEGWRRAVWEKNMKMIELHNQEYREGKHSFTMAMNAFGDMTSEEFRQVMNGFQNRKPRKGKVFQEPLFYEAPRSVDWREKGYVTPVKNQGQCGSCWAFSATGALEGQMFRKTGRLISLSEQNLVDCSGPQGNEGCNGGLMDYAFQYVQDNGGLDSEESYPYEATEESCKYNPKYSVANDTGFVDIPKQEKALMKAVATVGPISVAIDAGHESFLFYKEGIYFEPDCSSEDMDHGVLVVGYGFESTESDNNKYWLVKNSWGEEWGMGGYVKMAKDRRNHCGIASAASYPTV

Cathepsin S = Cathepsin S (Homo sapiens, UniProt P25774); assay: Inhibition of human recombinant cathepsin S
Cathepsin S, sequence (P25774 whole entry): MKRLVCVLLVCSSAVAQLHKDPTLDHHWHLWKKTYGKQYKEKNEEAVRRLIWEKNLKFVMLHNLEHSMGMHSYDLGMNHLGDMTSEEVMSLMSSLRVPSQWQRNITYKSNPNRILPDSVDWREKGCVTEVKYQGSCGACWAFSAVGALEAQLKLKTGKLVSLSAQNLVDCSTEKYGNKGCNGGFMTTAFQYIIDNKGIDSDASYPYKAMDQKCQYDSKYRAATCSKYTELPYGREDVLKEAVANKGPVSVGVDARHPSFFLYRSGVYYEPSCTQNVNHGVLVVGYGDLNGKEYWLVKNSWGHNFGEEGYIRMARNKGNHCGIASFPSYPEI

Prolyl endopeptidase = Prolyl endopeptidase (Sus scrofa, UniProt P23687)
Prolyl endopeptidase, sequence (P23687 whole entry): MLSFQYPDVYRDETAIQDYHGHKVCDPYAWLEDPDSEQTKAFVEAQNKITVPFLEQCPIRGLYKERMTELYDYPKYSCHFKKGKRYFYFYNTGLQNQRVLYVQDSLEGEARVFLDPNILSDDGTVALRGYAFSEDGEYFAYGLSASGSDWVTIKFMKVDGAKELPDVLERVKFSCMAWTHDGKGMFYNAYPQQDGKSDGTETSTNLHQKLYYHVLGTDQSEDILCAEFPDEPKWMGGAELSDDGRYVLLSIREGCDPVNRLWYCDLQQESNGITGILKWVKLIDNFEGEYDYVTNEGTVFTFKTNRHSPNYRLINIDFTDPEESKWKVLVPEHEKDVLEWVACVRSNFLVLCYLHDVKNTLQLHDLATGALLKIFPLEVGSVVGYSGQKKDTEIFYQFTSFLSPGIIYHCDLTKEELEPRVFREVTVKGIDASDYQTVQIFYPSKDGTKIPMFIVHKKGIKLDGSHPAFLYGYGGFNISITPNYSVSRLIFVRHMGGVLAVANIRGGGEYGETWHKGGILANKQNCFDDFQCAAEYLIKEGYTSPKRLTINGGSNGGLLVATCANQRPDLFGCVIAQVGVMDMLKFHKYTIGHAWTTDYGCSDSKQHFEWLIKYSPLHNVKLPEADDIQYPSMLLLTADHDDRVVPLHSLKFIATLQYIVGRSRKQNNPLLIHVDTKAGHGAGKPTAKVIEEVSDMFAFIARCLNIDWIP

[3] = Inhibition of human rhinovirus 14 3C protease; parameters: species or system rhinovirus B14
rhinovirus B14 = assay: Antiviral activity against human rhinovirus 14; type: functional, organism-based; conditions: Rhinovirus B
[4] = Oral bioavailability in rat; type: ADME, organism-based; conditions: in vivo
[5] = Inhibition of human beta-tryptase
[6] = target: T2, Fatty-acid amide hydrolase 1 (Rattus norvegicus, UniProt P97612)
T2 sequence (P97612 whole entry): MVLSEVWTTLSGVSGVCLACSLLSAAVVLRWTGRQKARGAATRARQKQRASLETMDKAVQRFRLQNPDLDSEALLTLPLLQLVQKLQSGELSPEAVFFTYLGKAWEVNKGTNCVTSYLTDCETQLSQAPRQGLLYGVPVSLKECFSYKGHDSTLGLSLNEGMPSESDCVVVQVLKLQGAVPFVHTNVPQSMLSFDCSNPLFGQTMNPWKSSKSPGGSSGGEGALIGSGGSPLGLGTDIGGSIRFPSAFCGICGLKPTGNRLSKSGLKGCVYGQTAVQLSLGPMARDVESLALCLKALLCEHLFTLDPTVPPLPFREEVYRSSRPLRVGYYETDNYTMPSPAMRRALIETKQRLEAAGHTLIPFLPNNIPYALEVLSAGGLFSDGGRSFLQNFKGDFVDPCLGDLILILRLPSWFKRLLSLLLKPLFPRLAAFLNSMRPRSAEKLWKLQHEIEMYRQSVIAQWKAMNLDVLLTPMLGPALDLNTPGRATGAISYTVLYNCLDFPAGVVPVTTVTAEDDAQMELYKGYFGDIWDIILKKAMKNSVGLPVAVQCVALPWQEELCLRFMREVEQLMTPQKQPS

Prothrombin = Prothrombin (Homo sapiens, UniProt P00734); assay: Inhibition of human alpha-thrombin
[7] = Inhibition of bovine trypsin; parameters: species or system Bos taurus
[8] = Selectivity for human alpha-thrombin over bovine trypsin

- pKi (Cathepsin B): 4.47
- pKi (Cathepsin K): 5.52
- pKi (Procathepsin L): 4.55
- pKi (Cathepsin S): 5.70
Compound: CCCC[C@H](NC(=O)OCc1ccccc1)C(=O)c1nnc(-c2ccco2)o1

- pEC50 (rhinovirus B14): 5.10
Compound: CC(C)C[C@H](NC(=O)OCc1ccccc1)C(=O)N[C@@H](Cc1ccccc1)C(=O)N[C@@H](C[C@H]1CCNC1=O)C(=O)c1nccs1
- pKi [3]: 6.15

- pKi [5]: 7.64
Compound: NCCCCC(NC(=O)[C@H](Cc1ccccc1)NC(=O)[C@@H](Cc1ccccc1)NS(=O)(=O)Cc1ccccc1)C(=O)c1nc2ccccc2s1 (some centres undefined)

- pKi (Cathepsin B): 4.60
- pKi (Cathepsin K): 5.02
- pKi (Procathepsin L): 4.00
- pKi (Cathepsin S): 4.59
Compound: CCCC[C@H](NC(=O)CCc1ccccc1)C(=O)c1nnc(-c2ccco2)o1

- pKi (Cathepsin S): > 7.00
Compound: O=C(N[C@@H](CCc1ccccc1)C(=O)c1ncco1)[C@@H](CC(=O)N1CCOCC1)CC1CCCCC1

- bioavailability [4]: 2%
- pKi (Prothrombin): 9.07
Compound: N=C(N)NCCC[C@H](NC(=O)[C@@H]1CC[C@@H]2CC[C@@](N)(Cc3ccccc3)C(=O)N21)C(=O)c1nc2ccccc2s1

- pKi (Cathepsin B): 7.05
- pKi (Cathepsin K): 7.40
- pKi (Procathepsin L): 6.66
- pKi (Cathepsin S): 7.40
Compound: CC(C)C[C@H](NC(=O)C1CCNCC1)C(=O)N[C@@H](CCc1ccccc1)C(=O)c1nc2cc(S(N)(=O)=O)ccc2o1

- pIC50 (Prolyl endopeptidase): 8.25
Compound: O=C(c1nc2ccccc2o1)[C@@H]1CCCN1C(=O)[C@@H]1CCCN1CCCc1ccccc1

- pKi [7]: 5.89
- Ratio Ki [8]: 12000
Compound: CN[C@H](Cc1ccccc1)C(=O)N1CCC[C@H]1C(=O)N[C@@H](CCCNC(=N)N)C(=O)c1cc2ccccc2s1

- pKi (Cathepsin B): 5.68
- pKi (Cathepsin K): 8.02
- pKi (Procathepsin L): 7.52
Compound: CC(C)C[C@H](NC(=O)C1CCNCC1)C(=O)N[C@@H](CCc1ccccc1)C(=O)c1nc2ccccc2o1

- pKi (Cathepsin S): > 7.00
Compound: CCC[C@H](NC(=O)[C@@H](CC(=O)N1CCOCC1)CC(C)(C)C)C(=O)c1nc2ccccc2o1

- pEC50 (rhinovirus B14): 5.40
Compound: CC(C)C[C@H](NC(=O)OCc1ccccc1)C(=O)N[C@@H](Cc1ccccc1)C(=O)N[C@@H](C[C@H]1CCNC1=O)C(=O)c1ccccn1
- pKi [3]: 6.77

The remaining lines, values behind:

Compound: O=C(CCCCCCOc1ccc(-c2ccccc2)cc1)c1ccccn1
- pIC50 [1]: < 4.30

Compound: CCCCCCCC/C=C\CCCCCCCC(=O)c1nnc(-c2ccccn2)o1
- Selectivity ratio [2]: 5000

Compound: Cn1ccnc1C(=O)CCCCCCOc1ccc(-c2ccccc2)cc1
- pIC50 [1]: < 4.30

Compound: O=C(c1ncc[nH]1)[C@@H]1CCCN1C(=O)[C@@H]1CCCN1CCCc1ccccc1
- pIC50 (Prolyl endopeptidase): 8.05

Compound: NCCCC[C@H](NC(=O)[C@@H]1CCCN1C(=O)[C@H](N)CC1CCCCC1)C(=O)c1nccs1
- bioavailability [4]: 23%

Compound: O=C(c1nc2ccccc2s1)[C@@H]1CCCN1C(=O)[C@@H]1CCCN1OCc1ccccc1
- pIC50 (Prolyl endopeptidase): 8.25

Compound: CCCCCCCCCCCC(=O)c1nc2ncccc2o1
- pKi [6]: 9.24
- Selectivity ratio [2]: 100

Compound: CC(=O)NCC(=O)N[C@@H](CCCN=C(N)N)C(=O)c1nc2ccccc2s1
- pKi [5]: 6.33

Compound: CC(NC(=O)[C@H](CC(=O)N(C)C)NC(=O)[C@@H](NC(=O)CC(C)(C)C)C(C)(C)C)C(=O)c1nc2ccccc2s1 (some centres undefined)
- pIC50 (Prolyl endopeptidase): 5.05

Compound: O=C(C1=NCCS1)[C@@H]1CCCN1C(=O)[C@@H]1CCCN1CCCc1ccccc1
- pIC50 (Prolyl endopeptidase): 8.42

Compound: CNC(=O)C(=O)CCCCCCOc1ccc(-c2ccccc2)cc1
- pIC50 [1]: 6.96

Compound: O=C(CCCCCCC(=O)c1ncco1)Nc1cc2ccccc2[nH]1
- pIC50 [1]: 7.05

Compound: CC(=O)N1C[C@H](O)C[C@@H]1C(=O)N[C@@H](CCCNC(=N)N)C(=O)c1nc2ccccc2s1
- pKi [5]: 6.42

Compound: COc1ccc(-c2csc(NC(=O)CCCCCCC(=O)c3ncco3)n2)cc1
- pIC50 [1]: 7.52

Compound: CN[C@H](Cc1ccccc1)C(=O)N1CCC[C@H]1C(=O)N[C@@H](CCCNC(=N)N)C(=O)c1nccn1C
- pKi [7]: 5.24

Compound: O=C(CCCCCCOc1ccc(-c2ccccc2)cc1)c1nc2ccccc2o1
- pIC50 [1]: < 4.30

Compound: N=C(N)NCCC[C@H](NC(=O)[C@@H]1CCN2CC[C@@](N)(Cc3ccccc3)C(=O)N12)C(=O)c1nc2ccccc2s1
- bioavailability [4]: 25%
- pKi (Prothrombin): 9.19

Compound: O=C(CCCCCCOc1ccc(-c2ccccc2)cc1)c1nnn[nH]1
- pIC50 [1]: 6.00

Compound: O=C(CCCCCCOc1cccc(-c2ccccc2)c1)c1ncco1
- pIC50 [1]: 6.21

Compound: O=C(c1nccs1)[C@@H]1CCCN1C(=O)[C@@H]1CCCN1CCCc1ccccc1
- pIC50 (Prolyl endopeptidase): 8.30
